Data set [1] in a line: Metabolic stability assay in rat liver microsomes (RLM). It counts as in vitro ADME. The note with it: 1 μM. The procedure: (§1) Protocol 1: Studies were carried out in human and rat liver microsomes (“HLM” and “RLM,” respectively). Human and rat liver microsomes were purchased from BD Gentest. DMSO stocks were prepared for the test compounds. Aliquots of the DMSO solutions were diluted to 0.5 mM by acetonitrile, then further diluted by liver microsomes/buffer to 1.5 μM. 30 μL of 1.5 μM solutions were mixed with 15 μL of 6 mM NADPH, which had been pre-warmed to 37° C., at a final test compound concentration of 1 μM. The plates were kept in a 37° C. water bath for the duration of the experiment. At each time point (0, 5, 15, 30, 45 minutes), 135 μL of acetonitrile was added into corresponding wells. After the final time point was sampled, the plates were shaken at a vibrator (IKA, MTS 2/4) for 10 min (600 rpm/min) and then centrifuged at 5594 g for 15 min (Thermo Multifuge×3R). Aliquots of the supernatant were removed, diluted 1:1 into distilled water, and analyzed by LC-MS/MS. The peak area response ratio to internal standard (PARR) of the compounds at 5, 15, 30, 45 minutes was compared to the PARR at time 0 to determine the percent of test compound remaining at each time point. Half-lives were calculated using Excel software, fitting to a single-phase exponential decay equation.
(§2) Protocol 2: Studies were carried out in human and rat liver microsomes. Buffer solutions were prepared as follows: Buffer A: 1.0 L of 0.1 M monobasic Potassium Phosphate buffer containing 1.0 mM EDTA; Buffer B: 1.0 L of 0.1 M Dibasic Potassium Phosphate buffer containing 1.0 mM EDTA; Buffer C: 0.1 M Potassium Phosphate buffer, 1.0 mM EDTA, pH 7.4 by titrating 700 mL of buffer B with buffer A while monitoring with a pH meter.
(§3) Reference compound (Ketanserin) and test compound spiking solutions were prepared as follows: 500 μM spiking solution: add 10 μL of 10 mM DMSO stock solution into 190 μL ACN; 1.5 μM spiking solution in microsomes (0.75 mg/mL): add 1.5 μL of 500 μM spiking solution and 18.75 μL of 20 mg/mL liver microsomes into 479.75 μL of Buffer C.
(§4) NADPH stock solution (6 mM) was prepared by dissolving NADPH into buffer C.
(§5) Assay procedure: 30 μL of 1.5 μM spiking solution containing 0.75 mg/mL microsomes solution was dispensed to the wells designated for […]. The plate was pre-incubated at 37° C. for 10 minutes. 15 μL of NADPH stock solution (6 mM) was added to the wells designated as Time 45, and the timer was started. At 30 mM, 15 mM, and 5 mM, 15 μL NADPH stock solution (6 mM) was added to the wells, respectively. At the end of incubation (0 mM), 135 μL of ACN containing IS was added to all the wells. Then 15 μL of NADPH stock solution (6 mM) was added to the wells designated as Time 0. After quenching, the reaction mixtures were centrifuged at 3220 g for […]. Following centrifugation, 50 μL of the supernatant was transferred from each well into a 96-well sample plate containing 50 μL of ultra-pure water (Millipore) for LC/MS analysis. The peak area response (PARR) ratio to internal standard of the compounds at 5, 15, 30, and 45 minutes was compared to the PARR at time 0 to determine the percent of test compound remaining at each time point. Half-lives were calculated using Excel software, fitting to a single-phase exponential decay equation.

In data set [2] the target is CYP2C19 (Homo sapiens (Human), UniProt P33261). The data set can be described thus: Cytochrome P450 inhibition in human liver microsomes, CYP2C19. The note with it: read-out: 2C19 IC50, Protocol 2.
In data set [3] the target is rat brain nicotinic receptor (α7 NAChR) (Rattus norvegicus (Rat), UniProt Q05941). In kind it is binding.
For data set [4], the target named is CYP2C9 (Homo sapiens (Human), UniProt P11712). The data set can be described thus: Cytochrome P450 inhibition in human liver microsomes, CYP2C9. Conditions: read-out: 2C9 IC50, Protocol 2. A general note: Liver microsomes are a subcellular fraction often used to study metabolism.
Data set [5] in a line: Human plasma stability. It counts as in vitro ADME. Conditions: plasma. The procedure:
Protocol 1: Studies were carried out in human plasma. All plasma was obtained from Bioreclamation and collected on sodium heparin. Plasma was adjusted to pH 7.4. A DMSO stock was first prepared for the test compound. An aliquot of the DMSO solution was dosed into 1 mL of plasma, which had been pre-warmed to 37° C., at a final test compound concentration of 1 μM. The vials were kept in a benchtop Thermomixer® for the duration of the experiment. Aliquots (100 μL) were taken at each time point (0, 15, 30, 60, and 120 minutes) and added to 96-well plates which had been pre-filled with 300 μL of acetonitrile. Samples were stored at 4° C. until the end of the experiment. After the final time point was sampled, the plate was mixed and then centrifuged at 3,000 rpm for 10 minutes. Aliquots of the supernatant were removed, diluted 1:1 into distilled water, and analyzed by LC-MS/MS. The peak area response ratio to internal standard (PARR) of the compound at 15, 30, 60 and 120 minutes was compared to the PARR at time 0 to determine the percent of test compound remaining at each time point. Half-lives were calculated using GraphPad software, fitting to a single-phase exponential decay equation.
Protocol 2: Studies were carried out in plasma. Plasma was prepared under approval of IRB and IACUC on sodium heparin. The pH of plasma was monitored and used within the range of pH 7.4 to pH 8.0. DMSO stocks were prepared for the test compounds. Aliquots of the DMSO solutions were diluted to 0.05 mM by 0.05 mM Sodium phosphate buffer with 0.5% BSA. Then 10 μL of 0.05 mM solutions were dosed into 90 μL of plasma in duplicates (n=2), which had been pre-warmed to 37° C., at a final test compound concentration of 5 μM. The plates were kept in a 37° C. water bath for the duration of the experiment. At each time point (0, 5, 15, 30, 45, 60, and 120 minutes), 400 μL of acetonitrile was added into corresponding wells. After the final time point was sampled, the plates were shaken at the vibrator (IKA, MTS 2/4) for 10 min (600 rpm/min) and then centrifuged at 5594 g for 15 min (Thermo Multifuge×3R). Aliquots of the supernatant were removed, diluted 1:1 into distilled water, and analyzed by LC-MS/MS. The peak area response ratio to internal standard (PARR) of the compounds at 5, 15, 30, 45, 60, and 120 minutes was compared to the PARR at time 0 to determine the percent of test compound remaining at each time point. Half-lives were calculated using Excel software, fitting to a single-phase exponential decay equation.

Data set [6] deals with CYP1A2 (Homo sapiens (Human), UniProt P05177). Briefly: Cytochrome P450 inhibition in human liver microsomes, CYP1A2. The note with it: read-out: 1A2 IC50, Protocol 2.
A short description of data set [7]: Metabolic stability assay in human liver microsomes (HLM). Conditions: 1 μM. It counts as in vitro ADME. The procedure: as §1, §2, §3, §4, §5
The target in data set [8] is CYP3A4 (Homo sapiens (Human), UniProt P08684). Briefly: Cytochrome P450 inhibition in human liver microsomes, CYP3A4. The note with it: read-out: 3A4 IC50 (Midazolam), substrate midazolam, Protocol 2.
Chain of CYP3A4 (P08684 whole entry): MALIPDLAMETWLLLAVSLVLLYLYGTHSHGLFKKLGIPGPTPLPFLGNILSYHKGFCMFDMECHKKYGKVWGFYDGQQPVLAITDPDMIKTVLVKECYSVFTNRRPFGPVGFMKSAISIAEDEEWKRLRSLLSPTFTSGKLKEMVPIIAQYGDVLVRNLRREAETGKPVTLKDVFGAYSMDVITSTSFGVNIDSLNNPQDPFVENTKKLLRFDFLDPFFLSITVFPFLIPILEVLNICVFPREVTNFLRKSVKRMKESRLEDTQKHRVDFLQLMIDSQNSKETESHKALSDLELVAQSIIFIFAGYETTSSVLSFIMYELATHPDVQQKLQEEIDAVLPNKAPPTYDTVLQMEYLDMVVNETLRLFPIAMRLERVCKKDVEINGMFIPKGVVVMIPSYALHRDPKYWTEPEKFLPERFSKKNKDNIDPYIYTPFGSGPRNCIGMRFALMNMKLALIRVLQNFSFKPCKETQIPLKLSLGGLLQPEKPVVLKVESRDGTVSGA

Chain of rat brain nicotinic receptor (α7 NAChR) (Q05941 23-502 limits assumed): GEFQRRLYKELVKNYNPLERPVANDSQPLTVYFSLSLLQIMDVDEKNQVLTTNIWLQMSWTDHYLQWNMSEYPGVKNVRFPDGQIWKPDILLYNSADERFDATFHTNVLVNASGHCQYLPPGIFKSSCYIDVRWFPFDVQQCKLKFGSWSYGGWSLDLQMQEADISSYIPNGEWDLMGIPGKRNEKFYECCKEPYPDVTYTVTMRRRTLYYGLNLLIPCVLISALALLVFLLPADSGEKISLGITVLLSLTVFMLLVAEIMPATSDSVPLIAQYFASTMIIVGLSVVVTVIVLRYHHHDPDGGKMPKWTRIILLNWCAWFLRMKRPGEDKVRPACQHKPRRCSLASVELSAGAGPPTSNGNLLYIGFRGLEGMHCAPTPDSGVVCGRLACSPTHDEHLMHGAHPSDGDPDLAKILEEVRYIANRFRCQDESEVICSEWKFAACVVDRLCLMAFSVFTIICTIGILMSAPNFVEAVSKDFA
Chain of CYP2C19 (P33261 whole entry): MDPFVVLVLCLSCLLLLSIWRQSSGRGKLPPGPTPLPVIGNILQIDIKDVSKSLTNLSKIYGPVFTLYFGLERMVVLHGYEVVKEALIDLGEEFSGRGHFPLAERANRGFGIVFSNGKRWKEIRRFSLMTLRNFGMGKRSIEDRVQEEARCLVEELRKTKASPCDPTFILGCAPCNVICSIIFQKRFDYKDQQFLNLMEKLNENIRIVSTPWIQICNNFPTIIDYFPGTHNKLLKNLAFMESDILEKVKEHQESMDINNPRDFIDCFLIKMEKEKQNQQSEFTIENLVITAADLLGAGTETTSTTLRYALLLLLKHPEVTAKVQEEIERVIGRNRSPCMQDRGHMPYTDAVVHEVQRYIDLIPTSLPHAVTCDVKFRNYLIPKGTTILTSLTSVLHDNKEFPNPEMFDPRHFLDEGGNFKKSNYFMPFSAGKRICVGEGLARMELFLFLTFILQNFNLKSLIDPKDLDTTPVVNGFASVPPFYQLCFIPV
Chain of CYP1A2 (P05177 whole entry): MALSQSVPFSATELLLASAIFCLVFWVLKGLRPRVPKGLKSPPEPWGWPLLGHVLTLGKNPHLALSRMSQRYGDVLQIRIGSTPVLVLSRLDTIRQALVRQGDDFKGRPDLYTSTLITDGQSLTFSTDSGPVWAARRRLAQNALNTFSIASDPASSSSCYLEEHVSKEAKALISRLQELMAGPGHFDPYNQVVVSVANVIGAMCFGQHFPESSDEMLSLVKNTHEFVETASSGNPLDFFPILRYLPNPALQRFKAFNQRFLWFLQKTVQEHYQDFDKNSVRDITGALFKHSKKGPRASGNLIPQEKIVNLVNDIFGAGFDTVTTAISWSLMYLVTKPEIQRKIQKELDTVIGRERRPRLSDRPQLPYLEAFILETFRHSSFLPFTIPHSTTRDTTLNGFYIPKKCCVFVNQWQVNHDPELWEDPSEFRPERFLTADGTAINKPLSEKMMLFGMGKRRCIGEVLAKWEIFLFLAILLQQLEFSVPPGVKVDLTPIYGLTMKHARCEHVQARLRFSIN
Chain of CYP2C9 (P11712 whole entry): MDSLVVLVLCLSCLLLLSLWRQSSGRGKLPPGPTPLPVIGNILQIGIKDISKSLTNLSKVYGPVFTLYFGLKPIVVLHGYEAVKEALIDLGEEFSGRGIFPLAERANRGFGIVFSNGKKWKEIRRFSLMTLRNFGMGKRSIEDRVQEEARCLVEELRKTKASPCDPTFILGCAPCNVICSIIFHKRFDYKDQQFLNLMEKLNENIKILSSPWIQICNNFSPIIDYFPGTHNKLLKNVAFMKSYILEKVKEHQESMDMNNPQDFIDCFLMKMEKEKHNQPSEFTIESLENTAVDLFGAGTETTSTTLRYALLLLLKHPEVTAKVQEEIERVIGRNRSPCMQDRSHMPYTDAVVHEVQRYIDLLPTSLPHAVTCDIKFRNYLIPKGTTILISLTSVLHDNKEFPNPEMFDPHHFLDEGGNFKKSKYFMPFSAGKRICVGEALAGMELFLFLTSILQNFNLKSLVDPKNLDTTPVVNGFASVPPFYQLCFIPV

As for `O=C(OCC12CCN(CC1)CC2)c1c[nH]c2ccccc12` [Compound 1, quinuclidin-4-ylmethyl 1H-indole-3-carboxylate], the RLM in data set [1] (rat, microsomes, pH 7.4) turned out to be 105.84 mL/min/kg. The IC50 (in general, the point on the concentration scale where inhibition reaches its midpoint) was greater than 10 µM in data set [2], 31.8 nM in data set [3], greater than 10 µM in data set [4] and greater than 10 µM in data set [6]. In data set [3], affinity was put at a Ki of 27.6 nM. For the same compound, in data set [5] (human, 2 h, 1 μM, pH 7.4), the “% Remaining @ 2 h” value is 11%. In data set [5] (human, pH 7.4), the half-life (usually the time in which the quantity being followed falls by half) at 1 μM turned out to be 38.5 min. In data set [7] (human, microsomes, pH 7.4), the HLM is reported as less than 13.608 mL/min/kg.
In data set [1] (rat, microsomes, pH 7.4), `COc1ccc2c(C(=O)OCC34CCN(CC3)CC4)c[nH]c2c1` [Compound 10, quinuclidin-4-ylmethyl 6-methoxy-1H-indole-3-carboxylate] came in with an RLM of 36.72 mL/min/kg. In addition, in data set [5] (human, pH 7.4), the half-life at 1 μM is greater than 120 min. Also, the IC50 in data set [6] is greater than 10 µM. The compound also gave an HLM in data set [7] (human, microsomes, pH 7.4) of less than 13.608 mL/min/kg.
As for `O=C(OCC12CCN(CC1)CC2)c1c[nH]c2cc(F)ccc12` [Compound 11, quinuclidin-4-ylmethyl 6-fluoro-1H-indole-3-carboxylate], the RLM in data set [1] (rat, microsomes, pH 7.4) came to 97.6892 mL/min/kg. The IC50 was 261 nM in data set [3], greater than 10 µM in data set [6] and greater than 10 µM in data set [8]. The Ki – broadly, a dissociation constant, usually derived from enzyme kinetics or from competition with a known ligand – in data set [3] amounted to 228 nM. The same compound yielded an HLM in data set [7] (human, microsomes, pH 7.4) of less than 13.608 mL/min/kg.
Regarding `O=C(OCC12CCN(CC1)CC2)c1c[nH]c2ccc(O)cc12` [Compound 15, quinuclidin-4-ylmethyl 5-hydroxy-1H-indole-3-carboxylate], the RLM in data set [1] (rat, microsomes, pH 7.4) is 25.92 mL/min/kg. Besides, the IC50 in data set [2] was greater than 10 µM; in data set [3], 153 nM; in data set [4] it was greater than 10 µM; in data set [6], greater than 10 µM. The inhibitory constant (Ki) in data set [3] came to 132 nM. Further, the HLM in data set [7] (human, microsomes, pH 7.4) is less than 13.608 mL/min/kg.
`COc1cccc2c(C(=O)OCC34CCN(CC3)CC4)c[nH]c12` [Compound 16, quinuclidin-4-ylmethyl 7-methoxy-1H-indole-3-carboxylate] displayed an RLM in data set [1] (rat, microsomes, pH 7.4) of 82.6672 mL/min/kg. Also, the concentration for half-maximal inhibition (IC50) in data set [2] is greater than 10 µM; in data set [3] it was 1400 nM; in data set [4], greater than 10 µM; in data set [6] it was greater than 10 µM. The compound further returned an inhibition constant (Ki) in data set [3] of 1210 nM. In addition, the HLM in data set [7] (human, microsomes, pH 7.4) is given as less than 13.608 mL/min/kg.
`COc1ccc2c(C(=O)OCC34CCN(CC3)CC4)c[nH]c2c1` [Compound 17, quinuclidin-4-ylmethyl 6-methoxy-1H-indole-3-carboxylate] gave an RLM in data set [1] (rat, microsomes, pH 7.4) of 38.1652 mL/min/kg. Also, the IC50 in data set [3] is 376 nM; in data set [6] it was greater than 10 µM. The same compound came in with a Ki in data set [3] of 329 nM. The HLM in data set [7] (human, microsomes, pH 7.4) was less than 13.608 mL/min/kg.
Take `Cc1ccc2[nH]cc(C(=O)OCC34CCN(CC3)CC4)c2c1` [Compound 20, quinuclidin-4-ylmethyl 5-methyl-1H-indole-3-carboxylate]: the RLM in data set [1] (rat, microsomes, pH 7.4) was 276.124 mL/min/kg. Moreover, in data set [3], the midpoint of inhibition, the IC50, lay at 68.1 nM and the inhibition constant (Ki) worked out at 60.1 nM. Also, the “% Remaining @ 2 h” value in data set [5] (human, 2 h, 1 μM, pH 7.4) amounted to 14%. The compound further came in with a half-life at 1 μM in data set [5] (human, pH 7.4) of 41.2 min. For the same compound, the 50% inhibitory concentration (IC50) in data set [6] was greater than 10 µM. The HLM in data set [7] (human, microsomes, pH 7.4) was less than 13.608 mL/min/kg.
`N#Cc1ccc2c(C(=O)OCC34CCN(CC3)CC4)c[nH]c2c1` [Compound 28, quinuclidin-4-ylmethyl 6-cyano-1H-indole-3-carboxylate] displayed an RLM in data set [1] (rat, microsomes, pH 7.4) of 28.4342 mL/min/kg. Also, the concentration for half-maximal inhibition (IC50) in data set [2], in data set [4] and in data set [6] was greater than 10 µM in each case. Moreover, the “% Remaining @ 2 h” value in data set [5] (human, 2 h, 1 μM, pH 7.4) was 79%. In data set [5] (human, pH 7.4), this compound returned a half-life at 1 μM greater than 120 min. In data set [7] (human, microsomes, pH 7.4), this compound had an HLM of less than 13.608 mL/min/kg.
`COc1cccc2[nH]cc(C(=O)OCC34CCN(CC3)CC4)c12` [Compound 36, quinuclidin-4-ylmethyl 4-methoxy-1H-indole-3-carboxylate] returned an RLM in data set [1] (rat, microsomes, pH 7.4) of 52.02 mL/min/kg. The IC50 in data set [3] was 48.9 nM; in data set [6] it was greater than 10 µM. Further, in data set [3], the Ki was determined as 42.3 nM. For the same compound, the “% Remaining @ 2 h” value in data set [5] (human, 2 h, 1 μM, pH 7.4) was 2.5%. The compound also gave a half-life at 1 μM in data set [5] (human, pH 7.4) of 28 min. For the same compound, the HLM in data set [7] (human, microsomes, pH 7.4) is less than 13.608 mL/min/kg.
In turn, `Cc1cc2c(C(=O)OCC34CCN(CC3)CC4)c[nH]c2cc1Cl` [Compound 78, quinuclidin-4-ylmethyl 6-chloro-5-methyl-1H-indole-3-carboxylate] displayed an RLM in data set [1] (rat, microsomes) of 679.777 mL/min/kg. In data set [3], this compound yielded a half-inhibitory concentration (IC50) of 1130 nM and a Ki of 970 nM. In addition, in data set [5] (human, 2 h, 5 μM), the “% Remaining @ 2 h” value was 77.57%. This compound also yielded an HLM in data set [7] (human, microsomes) of 0 mL/min/kg.
Turning to “quinuclidin-4-ylmethyl 6-fluoro-4-methoxy-1H-indole-3-carboxylate [Compound 82]”, in data set [1] (Protocol No. 1, rat liver microsomes), the RLM came out at 433.66 mL/min/kg. In data set [3], this compound gave an IC50 of 412 nM and an inhibition constant (Ki) of 357 nM. For the same compound, in data set [5] (Protocol No. 2, 5 μM, 37° C.), the “% Remaining @ 2 h” value is 48.22% and the T1/2 is given as 124.43 min. In addition, the HLM in data set [7] (Protocol No. 1, human liver microsomes) is recorded as 8 mL/min/kg.

The values above are taken from US9434724B2, “Quinuclidines for modulating alpha 7 activity” (priority 2014, dated 2016).
